According to patent US20110301146A1 (ONCOTHERAPY SCIENCE, INC., priority 2008, published 2011):

target: T1, GSK-3beta (Homo sapiens, UniProt P49841); assay: Z'-LYTE kinase assay (FRET, SER/THR 9 peptide); assay type: biochemical; settings: 0.04 ng/micro-l GSK-3beta (Invitrogen), 2 micro-M SER/THR 9 peptide, 15 micro-M ATP, 1 hour at room temperature, 1% DMSO
T1 construct: purchased Invitrogen
Procedure: The Z′-LYTE kinase assay kit employs a fluorescence resonance energy transfer (FRET) between two fluorophores, coumarin and fluorescein, attached to each end of a substrate peptide.
For 0% phosphorylation control, ATP was omitted from the reaction mixture. For 100% phosphorylation control, SER/THR 9 phosphopeptide was used in place of the SER/THR 9 peptide. Following 1 hour incubation at room temperature, the reaction was stopped by the addition of half assay volume of development solution and further incubated for 1 hour at room temperature. […] The extent of phosphorylation was determined according to the 0% and 100% phosphorylation control samples using the following equation: […]
IC50 values were calculated by nonlinear four parameter fit using SigmaPlot, version 10.0 (Systat Software, Inc.).

T1 sequence (P49841 whole entry): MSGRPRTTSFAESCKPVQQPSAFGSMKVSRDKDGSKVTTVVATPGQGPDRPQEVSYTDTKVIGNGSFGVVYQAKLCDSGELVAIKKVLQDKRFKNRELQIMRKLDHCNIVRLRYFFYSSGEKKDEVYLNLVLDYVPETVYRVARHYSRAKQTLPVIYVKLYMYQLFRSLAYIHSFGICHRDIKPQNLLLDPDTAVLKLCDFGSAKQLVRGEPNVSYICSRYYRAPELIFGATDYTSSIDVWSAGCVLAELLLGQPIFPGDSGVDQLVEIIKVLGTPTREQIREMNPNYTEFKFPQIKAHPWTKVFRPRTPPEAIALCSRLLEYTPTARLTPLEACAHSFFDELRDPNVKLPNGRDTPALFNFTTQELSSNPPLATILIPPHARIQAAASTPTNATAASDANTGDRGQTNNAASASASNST

SMILES	IC50
O=C(NCC1CCNCC1)c1ccc(O)c2[nH]c(C3CC3)nc12 [Example 5, 2-Cyclopropyl-4-hydroxy-N-(piperidin-4-ylmethyl)-1H-benzo[d]imidazole-7-carboxamide]	320 nM
O=C(NCC1CCCNC1)c1ccc(O)c2[nH]c(C3CC3)nc12 (stereo not drawn) [Example 6, 2-Cyclopropyl-4-hydroxy-N-(piperidin-3-yl-methyl)-1H-benzo[d]imidazole-7-carboxamide]	1600 nM
O=C(NCC1CCCCN1)c1ccc(O)c2[nH]c(C3CC3)nc12 (stereo not drawn) [Example 7, 2-Cyclopropyl-4-hydroxy-N-(piperidin-2-ylmethyl)-1H-benzo[d]imidazole-7-carboxamide]	100 nM
CN1CCCC(NC(=O)c2ccc(O)c3[nH]c(C4CC4)nc23)C1 (stereo not drawn) [Example 8, 2-cyclopropyl-4-hydroxy-N-(1-methylpiperidin-3-yl)-1H-benzo[d]imidazole-7-carboxamide]	1300 nM
O=C(N[C@H]1CCCNC1)c1ccc(O)c2[nH]c(C3CC3)nc12 [Example 9, (S)-2-cyclopropyl-4-hydroxy-N-(piperidin-3-yl)-1H-benzo[d]imidazole-7-carboxamide]	100 nM
O=C(NC1CCNCC1)c1ccc(O)c2[nH]c(C3CC3)nc12 [Example 10, 2-cyclopropyl-4-hydroxy-N-(piperidin-4-yl)-1H-benzo[d]imidazole-7-carboxamide]	30 nM
O=C(NC1CCCNC1)c1ccc(O)c2[nH]c(C3CC3)nc12 (stereo not drawn) [Example 11, 2-cyclopropyl-4-hydroxy-N-(piperidin-3-yl)-1H-benzo[d]imidazole-7-carboxamide]	190 nM
O=C(NC1CCNC1)c1ccc(O)c2[nH]c(C3CC3)nc12 (stereo not drawn) [Example 12, 2-cyclopropyl-4-hydroxy-N-(pyrrolidin-3-yl)-1H-benzo[d]imidazole-7-carboxamide]	210 nM
O=C(NCC1CNC1)c1ccc(O)c2[nH]c(C3CC3)nc12 [Example 13, N-(azetidin-3-ylmethyl)-2-cyclopropyl-4-hydroxy-1H-benzo[d]imidazole-7-carboxamide]	140 nM
O=C(NCC1CCCCN1)c1ccc(O)c2[nH]c(C3CCCC3)nc12 (stereo not drawn) [Example 14, 2-cyclopentyl-4-hydroxy-N-(piperidin-2-ylmethyl)-1H-benzo[d]imidazole-7-carboxamide]	1300 nM
O=C(NCC1CCCNC1)c1ccc(O)c2[nH]c(C3CCCC3)nc12 (stereo not drawn) [Example 15, 2-Cyclopentyl-4-hydroxy-N-(piperidin-3-ylmethyl)-1H-benzo[d]imidazole-7-carboxamide]	130 nM
O=C(N[C@H]1CCCNC1)c1ccc(O)c2[nH]c(C3CCCC3)nc12 [Example 16, (S)-2-Cyclopentyl-4-hydroxy-N-(piperidin-3-yl)-1H-benzo[d]imidazole-7-carboxamide]	120 nM
O=C(N[C@H]1CCCNC1)c1ccc(O)c2[nH]c(-c3ccccc3)nc12 [Example 17, (S)-4-Hydroxy-2-phenyl-N-(piperidin-3-yl)-1H-benzo[d]imidazole-7-carboxamide]	120 nM
O=C(NCC1CCCCN1)c1ccc(O)c2[nH]c(-c3ccccc3)nc12 (stereo not drawn) [Example 18, 4-Hydroxy-2-phenyl-N-(piperidin-2-ylmethyl)-1H-benzo[d]imidazole-7-carboxamide]	1500 nM
O=C(NCC1CCCNC1)c1ccc(O)c2[nH]c(-c3ccccc3)nc12 (stereo not drawn) [Example 19, 4-hydroxy-2-phenyl-N-(piperidin-3-ylmethyl)-1H-benzo[d]imidazole-7-carboxamide]	130 nM
O=C(N[C@H]1CC[C@H](O)CC1)c1ccc(O)c2[nH]c(-c3cccs3)nc12 [Example 20, 7-Hydroxy-N-(4-hydroxycyclohexyl)-2-(thiophen-2-yl)-1H-benzo[d]imidazole-4-carboxamide]	26 nM
O=C(NCC1CCCNC1)c1ccc(O)c2[nH]c(C3CC4CCC3C4)nc12 (stereo not drawn) [Example 48, 2-(Bicyclo[2.2.1]heptan-2-yl)-7-hydroxy-N-(piperidin-3-ylmethyl)-1H-benzo[d]imidazole-4-carboxamide]	68 nM
O=C(NC1CCCNC1)c1ccc(O)c2[nH]c(C3CC4CCC3C4)nc12 (stereo not drawn) [Example 49, 2-(Bicyclo[2.2.1]heptan-2-yl)-7-hydroxy-N-(piperidin-3-yl)-1H-benzo[d]imidazole-4-carboxamide]	230 nM
CC(C)(C)OC(=O)N1CCC[C@H](NC(=O)c2ccc(O)c3[nH]c(-c4ccc(Br)s4)nc23)C1 [Example 50, (S)-tert-Butyl 3-(2-(5-bromothiophen-2-yl)-7-hydroxy-1H-benzo[d]imidazole-4-carboxamido)piperidine-1-carboxylate]	3400 nM

Other lines, results leading:

IC50	SMILES
22000 nM	O=C(c1ccc(O)c2[nH]c(-c3cccs3)nc12)N1CCNCC1 [Example 21, (7-hydroxy-2-[thiophen-2-yl]-1H-benzo[d]imidazol-4-yl)(piperazin-1-yl)methanone]
210 nM	O=C(NCCN1CCNCC1)c1ccc(O)c2[nH]c(-c3cccs3)nc12 [Example 36, 7-Hydroxy-N-[2-(piperazin-1-yl)ethyl]-2-(thiophen-2-yl)-1H-benzo[d]imidazole-4-carboxamide]
8.6 nM	O=C(NCC1CCCNC1)c1ccc(O)c2[nH]c(-c3cccs3)nc12 (stereo not drawn) [Example 39, 7-Hydroxy-N-(piperidin-3-ylmethyl)-2-(thiophen-2-yl)-1H-benzo[d]imidazole-4-carboxamide]
18 nM	O=C(NC1CCNCC1)c1ccc(O)c2[nH]c(-c3cccs3)nc12 [Example 40, 7-Hydroxy-N-(piperidin-4-yl)-2-(thiophen-2-yl)-1H-benzo[d]imidazole-4-carboxamide]
180 nM	CN1CCCC(NC(=O)c2ccc(O)c3[nH]c(-c4cccs4)nc23)C1 (stereo not drawn) [Example 41, 7-Hydroxy-N-(1-methylpiperidin-3-yl)-2-(thiophen-2-yl)-1H-benzo[d]imidazole-4-carboxamide]
100 nM	O=C(NCC1CCNCC1)c1ccc(O)c2[nH]c(-c3cccs3)nc12 [Example 42, 7-Hydroxy-N-(piperidin-4-ylmethyl)-2-(thiophen-2-yl)-1H-benzo[d]imidazole-4-carboxamide]
43 nM	O=C(NCC1CNC1)c1ccc(O)c2[nH]c(-c3cccs3)nc12 [Example 43, N-(Azetidin-3-ylmethyl)-7-hydroxy-2-(thiophen-2-yl)-1H-benzo[d]imidazole-4-carboxamide]
110 nM	O=C(NC1CCNC1)c1ccc(O)c2[nH]c(-c3cccs3)nc12 (stereo not drawn) [Example 44, 7-Hydroxy-N-(pyrrolidin-3-yl)-2-(thiophen-2-yl)-1H-benzo[d]imidazole-4-carboxamide]
240 nM	O=C(NCC1CCCCN1)c1ccc(O)c2[nH]c(-c3cccs3)nc12 (stereo not drawn) [Example 45, 7-Hydroxy-N-(piperidin-2-ylmethyl)-2-(thiophen-2-yl)-1H-benzo[d]imidazole-4-carboxamide]
25 nM	O=C(NCC1CCNC1)c1ccc(O)c2[nH]c(-c3cccs3)nc12 (stereo not drawn) [Example 46, 7-Hydroxy-N-(pyrrolidin-3-ylmethyl)-2-(thiophen-2-yl)-1H-benzo[d]imidazole-4-carboxamide]
51 nM	N[C@H]1CC[C@H](NC(=O)c2ccc(O)c3[nH]c(-c4cccs4)nc23)CC1 [Example 47, N-(4-Aminocyclohexyl)-7-hydroxy-2-(thiophen-2-yl)-1H-benzo[d]imidazole-4-carboxamide]
